Drawing on article PMC8348019, this text covers ring closure, overall yield for six compounds.

This series in a line: head-to-tail lactamisation of linear tetramer (amino acid/peptoid hybrids) with HATU (1.5 equiv), DIPEA (8 equiv); dropwise addition of linear precursor to HATU solution. As to conditions: the molecule shown is the open-chain precursor; 12-membered ring; DMF; 5.0 mM; 21.0 °C; 30.0 h; 10 steps.

Consider `CCCC[C@H](NC(=O)[C@H]1CCCN1C(=O)[C@@H](N)[C@@H](C)CC)C(=O)N[C@@H](Cc1c[nH]c2ccccc12)C(=O)O` [H-Ile-D-Pro-Nle-Trp-OH], for which the ring closure, overall yield stood at 22%.
To `C=CCN(CC(=O)N[C@@H](Cc1ccccc1)C(=O)O)C(=O)[C@H]1CCCN1C(=O)CNC1CCCCC1` [H-(N-cyclohexyl)Gly-D-Pro-(N-allyl)Gly-Phe-OH] belongs 50%; to `CC[C@H](C)[C@H](N)C(=O)N1CCC[C@@H]1C(=O)N[C@@H](COC(C)(C)C)C(=O)N[C@@H](Cc1ccccc1)C(=O)O` [H-Ile-D-Pro-Ser(tBu)-Phe-OH], 46%.
Take `CCCC[C@H](NC(=O)[C@H]1CCCN1C(=O)[C@@H](N)CC(C)C)C(=O)N[C@@H](Cc1c[nH]c2ccccc12)C(=O)O` [H-Leu-D-Pro-Nle-Trp-OH]: the ring closure, overall yield came to 36%.
With `CCCC[C@H](NC(=O)[C@H]1CCCN1C(=O)[C@@H](N)CC(C)C)C(=O)N[C@@H](Cc1ccccc1)C(=O)O` [H-Leu-D-Pro-Nle-Phe-OH], the ring closure, overall yield came to 56%.
To `CCCC[C@H](NC(=O)[C@H]1CCCN1C(=O)[C@@H](N)Cc1ccccc1)C(=O)N[C@@H](Cc1c[nH]c2ccccc12)C(=O)O` [H-Phe-D-Pro-Nle-Trp-OH] belongs 38%.
